Measurements: PubChem BioAssay AID1996
Values after ≈ are worked out from the molar mass of the structure shown.

conditions: buffer; pH 7.4; 200.0 µM

| solubility kinetic [µg/mL] | Structure (SMILES) |
| --- | --- |
| > 47.6 | CC(=O)c1ccc(NC(=O)COC(=O)Cc2ccsc2)cc1 |
| 14.4 (≈ 48.8 µM) | COc1ccc(OCCn2cc(C=O)c3ccccc32)cc1 |
| > 45.2 | Cc1cc(SCNC(=O)c2ccccc2)nc(C(C)C)n1 |
| > 43.4 | COc1ccc(C(=O)OCC(=O)c2ccc[nH]2)c(OC)c1 |
| 11.3 (≈ 35.2 µM) | Cc1ccc2c(NC(=S)NC(=O)c3ccccc3)cccc2n1 |
| > 48.5 | O=C(Cn1cc(C(F)(F)F)ccc1=O)N/N=C/c1ccccc1 |
| 40.2 (≈ 146 µM) | Cc1ccc(C(=O)NC2CC(C)(C)NC(C)(C)C2)cc1 |
| 40.2 (≈ 146 µM) | O=C(NCCCl)C1Cc2c(ccc3ccccc23)O1 (stereo not given) |
| 47.7 (≈ 138 µM) | CN(C)c1ccc([N+](=O)[O-])cc1C(=O)NCC(c1ccco1)N(C)C (stereo not given) |
| 8.1 (≈ 29.6 µM) | COC(=O)c1ccc(NC(=O)C2CC3CCC2C3)cc1 (stereo not given) |
| 35.5 (≈ 146 µM) | N#Cc1ccc(OC(=O)Cc2ccsc2)cc1 |
| > 45.8 | O=C(COc1cccnc1[N+](=O)[O-])NCc1ccc(F)cc1 |
| 1.2 (≈ 3.74 µM) | COc1ccc(C(=O)OCC(=O)Nc2ccc(Cl)cn2)cc1 |
| > 54.2 | O=c1c(Cc2ccc(Cl)cc2Cl)c(O)ccn1Cc1ccncc1 |
| < 0.4 | O=C(Cn1cccc1C(=O)c1ccccc1)NCc1cccc(Cl)c1 |
| > 51.2 | COc1ccc(S(=O)(=O)N2CC(C)N(C(=O)N(C)C)C2C)cc1 (stereo not given) |
| 45.5 (≈ 146 µM) | CCCNC(=O)COC(=O)c1c2c(nc3ccccc13)CCC2 |
| 1.3 (≈ 3.97 µM) | COc1ccc(N2CCN(C(=S)Nc3ccccc3)CC2)cc1 |
| 25.9 (≈ 57.7 µM) | CCOc1ccc(NC(=O)COC(=O)c2ccc(S(=O)(=O)N3CCOCC3)cc2)cc1 |
| > 41.7 | COc1ccc(Cn2cnc([N+](=O)[O-])c2)cc1[N+](=O)[O-] |
| 35.1 (≈ 128 µM) | COCCn1cc(-c2csc(N)n2)c2ccccc21 |
| 0.2 (≈ 0.675 µM) | CNc1ccc([N+](=O)[O-])cc1-c1nc2ccccc2[nH]c1=O |
| < 0.2 | CC(=O)c1ccc(Nc2c([N+](=O)[O-])ccc3nonc23)cc1 |
| 27.1 (≈ 94.3 µM) | COc1cccc(NC(=O)C2C3C=CC(C3)C2C(=O)O)c1 (stereo not given) |

Further lines, the molecule ahead of its results:

| Structure (SMILES) | solubility kinetic [µg/mL] |
| --- | --- |
| Cl.NCCc1cnc[nH]1 | > 27.6 |
| Nc1ncc([N+](=O)[O-])c(N2CCCCCC2)n1 | > 35.6 |
| O=C(/C=C/c1cccc(F)c1)N1CCN(c2ccccn2)CC1 | 39.4 (≈ 127 µM) |
| CC(CCc1ccccc1)NC(=O)CCC1CCCC1 (stereo not given) | 14.5 (≈ 53 µM) |
| CCN(CC)c1ccc(/C=C2\SC(=O)N(C(C)C)C2=O)o1 | 4.1 (≈ 13.3 µM) |
| CCCCc1nc2cc(C(=O)N(C)C3CCOCC3)ccc2o1 | > 47.5 |
| NC(N)=NC(N)=Nc1ccccc1 | > 26.6 |
| O=C(NCN1CCN(c2ccccc2)CC1)c1cnccn1 | > 44.6 |
| C=CCNC(=O)CN(Cc1ccccc1)S(=O)(=O)c1ccccc1 | > 51.7 |
| O=C(c1cccc(S(=O)(=O)NCc2ccccc2)c1)N1CCCC1 | > 51.7 |
| COC(c1ccccc1)c1nnc(CCC(=O)NC2CCCCC2)o1 (stereo not given) | > 51.5 |
| N#Cc1ccc(NC(=S)NC(=O)C2CCCCC2)cc1 | 1.6 (≈ 5.57 µM) |
| O=C(C1CC1)N1CCN(c2ccc(F)cc2)CC1 | 34.7 (≈ 140 µM) |
| N#C/C(=C\c1ccccc1)C(=O)N1CCC(C(N)=O)CC1 | 40.1 (≈ 142 µM) |
| CN1C2CCC1CC(OC(c1ccccc1)c1ccccc1N)C2 (stereo not given) | > 48.4 |
| Cc1cccc(C)c1N=C1C(=O)Nc2ccccc21 | 31.2 (≈ 125 µM) |
| O=[N+]([O-])c1cnccc1NC1CCCCC1 | 29.1 (≈ 132 µM) |
| CCN1CCCC1CNC(=O)C(=O)NC(C)C (stereo not given) | > 36.2 |
| CS(=O)(=O)N1CCN(C(=O)Cc2ccc([N+](=O)[O-])cc2)CC1 | 49 (≈ 150 µM) |
| Cl.O=C(NC1CCN(Cc2ccccc2)CC1)c1ccccc1NS(=O)(=O)c1ccc(F)cc1 | > 75.6 |
| Cc1ccc(NC(=O)C2CCC(C(C)(C)C)CC2)cc1S(=O)(=O)N1CCOCC1 (stereo not given) | 3.5 (≈ 8.28 µM) |
